# Patent publication US20020002171A1, “Materials and methods for killing nematodes and nematode eggs” (priority 2000, published 2002)
# Tested on: Caenorhabditis elegans
# Assay: C. elegans L1 nematicidal dose response in 96-well plates, 5 day visual score (Example 2; same procedure for Example 7, Table 3)
# Assay type: in vivo
# Parameters: key to 5 Day Visual Score V1 / 5 Day Visual Score V2 / 5 Day Visual Score V3 / 5 Day Visual Score V4 / 5 Day Visual Score V6 / 5 Day Visual Score V5 / Initial HTS Run Visual Score / Follow-up HTS Run Visual Score: Dead: only stiff L1s (no movement); Dead (L4): worms are dead, but at a later larval stage; majority of worms are L1 (based on size) worms move when plate is tapped; majority of worms are L2 (based on size); majority of worms are L3 (based on size); majority of worms are L4 (based on size); AD: majority of worms are adult; #AD: 5 adult worms or less; B!: sterile (0-25 progeny); B: low broodsize (25-100 progeny); ˜B: moderate broodsize (100-250 progeny); <: reduced broodsize (250-500 progeny); OK: no effect (˜1000+ progeny)
# Protocol: Caenorhabditis elegans adults were grown on Nematode Growth Medium (NGM) until they produced eggs, then the adults were removed.
# The eggs were allowed to hatch, and the L1 larvae collected. See The Nematode Caenorhabditis elegans (1988) Cold Spring Harbor Laboratory Press. Using a Matrix Programmable Pipette, the L1s were distributed into 96-well tissue culture plates, 20 L1 in 50 μl NGM per well. Antibiotic/Antimyoticwas added to each well, and 1% by weight E. coli strain HB101. The subject anthelmintic compounds were stored at 5 mM in 100% DMSO. 0.7 μl of compounds 1-31 were added to the left-most column of wells to yield a final concentration of 70 μM in 1.4% DMSO, with 1.4% DMSO only as the control. The compounds were then subjected to 5 more 3-fold dilutions from left to right to yield 6 column concentrations of 70 μM, 23.3 μM, 7.8 μM, 2.6 μM, 0.9 μM, and 0.3 μM. Plates were stored in air-tight Rubbermaid plastic boxes at 20° C. The nematodes had cleared all control wells by day 4, and nematode viability was scored by visual examination under a 100× dissecting microsope on day 5. A visual viability scoring system was used as follows:
# Column V1 has a compound concentration of 70 μM with sequential 3-fold dilutions reported in columns V2, V3, V4, V5, and V6, respectively, such that the V6 concentration was 0.3 μM.
# The nematicidal activity of anthelmintic Compositions 48-168 were determined in accordance with the procedure outlined in Example 2.
# [1] = dose response, dilution V1, day 5
# [2] = dose response, dilution V2, day 5
# [3] = dose response, dilution V4, day 5
# [4] = dose response, dilution V5, day 5
# [5] = dose response, dilution V6, day 5
# [6] = dose response, dilution V3, day 5
# [7] = 23.3 μM, C. elegans L1, scored day 5
# [8] = 70 μM, C. elegans L1, scored day 5
# [9] = 2.6 μM, C. elegans L1, scored day 5
# [10] = 7.8 μM, C. elegans L1, scored day 5
SMILES,Follow-up HTS Run % Run,Follow-up HTS Run Visual Score,Follow-up HTS Run mOD,Initial HTS Run % Run,Initial HTS Run Visual Score,Initial HTS Run mOD,5 Day Visual Score V1 [1],5 Day Visual Score V2 [2],5 Day Visual Score V4 [3],5 Day Visual Score V5 [4],5 Day Visual Score V6 [5],5 Day Visual Score V3 [6],5 Day Visual Score V2 [7],5 Day Visual Score V1 [8],also measured
CCCCCCCCCCNc1nsc(N(CC(C)C)CC(C)C)n1 [compound 281],128%,Dead,206 mOD,141%,Dead,155 mOD,Dead,Dead,OK (no effect (˜1000+ progeny)),OK (no effect (˜1000+ progeny)),OK (no effect (˜1000+ progeny)),,,,
CCOC(=O)CCN(Cc1ccccc1)c1nc(NCCC(c2ccccc2)c2ccccc2)ns1 [compound 290],99%,L4/AD/B,159 mOD,101%,L4/AD/B,111 mOD,Dead,,OK (no effect (˜1000+ progeny)),OK (no effect (˜1000+ progeny)),OK (no effect (˜1000+ progeny)),OK (no effect (˜1000+ progeny)),,,
C=CCN(CC=C)c1nc(NCC(c2ccccc2)c2ccccc2)ns1 [compound 272],110%,,177 mOD,108%,L3,119 mOD,Dead,B (low broodsize (25-100 progeny)),OK (no effect (˜1000+ progeny)),OK (no effect (˜1000+ progeny)),OK (no effect (˜1000+ progeny)),OK (no effect (˜1000+ progeny)),,,
Cc1ccc(C(CC(=O)c2ccccc2)Nc2ccc(I)cc2F)o1 (stereo not shown) [AKC 129],,,,,,,,,,,,,Dead,Dead,"5 Day Visual Score V5 (0.9 μM, C. elegans L1, scored day 5): OK (no effect (˜1000+ progeny))"
CCC1CCCCN1c1cc(Oc2ccc3oc4ccccc4c3c2)ncn1 (stereo not shown) [AKC 340],,,,,,,,,,,,,L1,L1,
CCCCC(CC)CN(CC(CC)CCCC)c1nc(NC2CCCCCCCCCCC2)ns1 (stereo not shown) [compound 331],85%,Dead,137 mOD,95%,Dead,104 mOD,,,,,,,,,"5 Day Visual Score V1 (dose response, dilution V1, 5 day): Dead; 5 Day Visual Score V2 (dose response, dilution V2, 5 day): Dead; 5 Day Visual Score V3 (dose response, dilution V3, 5 day): Dead; 5 Day Visual Score V4 (dose response, dilution V4, 5 day): OK (no effect (˜1000+ progeny)); 5 Day Visual Score V5 (dose response, dilution V5, 5 day): OK (no effect (˜1000+ progeny)); 5 Day Visual Score V6 (dose response, dilution V6, 5 day): OK (no effect (˜1000+ progeny))"
CCCCN(Cc1ccccc1)c1nc(N2CCCC(C(=O)N(CC)CC)C2)ns1 (stereo not shown) [compound 239],132%,B (low broodsize (25-100 progeny)),212 mOD,134%,L4/AD/B!,147 mOD,L2,B (low broodsize (25-100 progeny)),OK (no effect (˜1000+ progeny)),OK (no effect (˜1000+ progeny)),OK (no effect (˜1000+ progeny)),OK (no effect (˜1000+ progeny)),,,
O=C(Nc1ccc(Br)cc1)N1CCC(c2nc(-c3ccccc3)no2)CC1 [AKC 108],,,,,,,,,,,,,Dead,Dead,5 Day Visual Score V4 [9]: L1; 5 Day Visual Score V3 [10]: L1
CCOc1ccccc1C1=NOC(c2cccc3ccccc23)C1C(=O)NCc1ccc(OC(F)(F)F)cc1 (stereo not shown) [AKC 105],,,,,,,,,,,,,L2/Dead(L3),L2/Dead(L3),5 Day Visual Score V4 [9]: L2/Dead(L; 5 Day Visual Score V3 [10]: L2/Dead(L3)
